# Values joined by “and” are separate entries in the source; they are usually repeats but may differ in a detail not shown here. Equal values may be shown once. Active and inactive are the calls of the source.
# Experiments:
# Cytochrome P450 2C9 = Cytochrome P450 2C9 (Homo sapiens, UniProt P11712)
# Cytochrome P450 1A2 = target: T1, Cytochrome P450 1A2 (Homo sapiens, UniProt P05177);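 note: PubChem cytochrome P450 panel assay, CYP1A2 panel member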
# T1 sequence (P05177 whole entry): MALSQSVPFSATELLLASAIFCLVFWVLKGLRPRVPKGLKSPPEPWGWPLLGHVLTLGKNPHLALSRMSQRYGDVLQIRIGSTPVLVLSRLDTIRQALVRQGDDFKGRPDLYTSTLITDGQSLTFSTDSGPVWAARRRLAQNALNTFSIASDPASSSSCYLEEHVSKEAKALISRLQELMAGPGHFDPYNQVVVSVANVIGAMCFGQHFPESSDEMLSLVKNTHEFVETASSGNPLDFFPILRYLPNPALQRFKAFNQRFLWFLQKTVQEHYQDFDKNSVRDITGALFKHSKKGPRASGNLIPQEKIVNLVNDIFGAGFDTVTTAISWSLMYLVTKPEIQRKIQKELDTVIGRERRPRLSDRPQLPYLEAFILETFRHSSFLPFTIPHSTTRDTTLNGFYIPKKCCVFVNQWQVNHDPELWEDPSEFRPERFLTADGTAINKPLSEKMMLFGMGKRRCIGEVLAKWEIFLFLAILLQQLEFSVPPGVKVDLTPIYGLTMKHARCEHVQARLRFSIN
# INS1 = test: beta cell apoptosis inhibitors, cytokine rescue, dose response, luminescence, retest (AID 449756); assay type: functional, cell-based; settings: Rattus norvegicus;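 note: cell death triggered by IL-1 beta plus TNF-alpha plus IFN-gamma mixture; protective hits raise ATP signal compared with cytokine alone wells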
# [1] = HEp-2 cell cytotoxicity, dose response, cytotoxicity control for RSV inhibitor project, HTS (AID 2410); assay type: functional; settings: human respiratory syncytial virus
# [2] = tested on: Streptococcus sp. 'group A'; test: growth inhibition of control SK(-) GAS strain, dose response, counter-screen for streptokinase expression inhibitor project, luminescence, kanamycin, BacTiterGlo, confirmation (AID 1900); assay type: functional, organism-based
# Streptococcus = test: Group A Streptococcus viability loss, dose response, counter-screen for streptokinase expression inhibitor project, luminescence, BacTiterGlo (AID 1915); assay type: functional, organism-based;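 note: potency for reduction of bacterial viability or growth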
# Streptokinase A = target: T2, Streptokinase A (Streptococcus pyogenes serotype M1, UniProt P10520); test: S. pyogenes streptokinase expression inhibitors, potency, dose response, plasminogen activation absorbance, OD405 (AID 1914); assay type: functional, Streptococcus pyogenes M1 GAS;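 note: secreted streptokinase activity via plasminogen activation per viability signal from cell pellet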
# T2 sequence (P10520 whole entry): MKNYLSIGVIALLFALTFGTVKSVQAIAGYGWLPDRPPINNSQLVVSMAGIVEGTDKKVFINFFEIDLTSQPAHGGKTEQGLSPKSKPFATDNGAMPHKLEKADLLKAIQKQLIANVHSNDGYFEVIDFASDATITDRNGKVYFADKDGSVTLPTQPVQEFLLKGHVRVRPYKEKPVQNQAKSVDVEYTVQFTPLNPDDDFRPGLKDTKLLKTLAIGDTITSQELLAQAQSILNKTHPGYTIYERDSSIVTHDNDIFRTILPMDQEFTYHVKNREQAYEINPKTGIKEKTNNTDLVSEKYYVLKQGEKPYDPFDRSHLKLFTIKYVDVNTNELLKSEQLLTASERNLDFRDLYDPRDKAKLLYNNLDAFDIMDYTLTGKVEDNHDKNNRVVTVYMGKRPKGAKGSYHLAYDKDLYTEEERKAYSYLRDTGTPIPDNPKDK
# Cytochrome P450 2D6 = Cytochrome P450 2D6 (Homo sapiens, UniProt P10635);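 note: CYP2D6 member of a cytochrome P450 panel assay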
# Sequence of Cytochrome P450 2D6 (P10635 whole entry, the tested form may be a part): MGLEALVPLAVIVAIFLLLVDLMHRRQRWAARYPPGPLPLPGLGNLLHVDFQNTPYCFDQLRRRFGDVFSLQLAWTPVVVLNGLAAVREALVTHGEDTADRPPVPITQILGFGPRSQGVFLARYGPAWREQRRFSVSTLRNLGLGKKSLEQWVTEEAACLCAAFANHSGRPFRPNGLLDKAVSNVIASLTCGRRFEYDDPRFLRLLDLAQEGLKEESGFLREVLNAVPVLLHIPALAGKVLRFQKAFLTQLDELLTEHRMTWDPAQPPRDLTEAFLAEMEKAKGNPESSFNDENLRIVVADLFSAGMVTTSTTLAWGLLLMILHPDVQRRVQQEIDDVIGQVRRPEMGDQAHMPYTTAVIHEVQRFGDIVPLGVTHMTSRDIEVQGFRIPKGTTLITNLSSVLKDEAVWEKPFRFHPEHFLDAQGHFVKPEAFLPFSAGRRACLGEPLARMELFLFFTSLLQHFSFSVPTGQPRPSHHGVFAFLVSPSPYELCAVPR
# [3] = target: T3, RNA-binding protein pos-1 (Caenorhabditis elegans, UniProt G5EF15); test: inhibitors of POS-1/mex-3 RNA binding, dose response, biochemical, fluorescence polarization (AID 1964);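 note: purified POS-1 fused to maltose binding protein made in E. coli; potency of compounds blocking POS-1 binding to fluorescent RNA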
# T3 sequence (G5EF15 whole entry): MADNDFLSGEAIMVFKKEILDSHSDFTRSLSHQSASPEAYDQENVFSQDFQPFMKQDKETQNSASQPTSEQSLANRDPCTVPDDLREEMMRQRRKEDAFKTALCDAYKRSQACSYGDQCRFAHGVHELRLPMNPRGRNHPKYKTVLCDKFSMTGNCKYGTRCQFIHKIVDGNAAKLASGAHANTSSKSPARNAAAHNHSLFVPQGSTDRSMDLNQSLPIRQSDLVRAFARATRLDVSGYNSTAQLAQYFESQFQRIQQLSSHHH
# [4] = target: T4, Zinc finger protein mex-5 (Caenorhabditis elegans, UniProt Q9XUB2); test: MEX-5/TCR-2 RNA interaction inhibitors, dose response, biochemical, C. elegans, fluorescence polarization (AID 1960)
# T4 sequence (Q9XUB2 whole entry): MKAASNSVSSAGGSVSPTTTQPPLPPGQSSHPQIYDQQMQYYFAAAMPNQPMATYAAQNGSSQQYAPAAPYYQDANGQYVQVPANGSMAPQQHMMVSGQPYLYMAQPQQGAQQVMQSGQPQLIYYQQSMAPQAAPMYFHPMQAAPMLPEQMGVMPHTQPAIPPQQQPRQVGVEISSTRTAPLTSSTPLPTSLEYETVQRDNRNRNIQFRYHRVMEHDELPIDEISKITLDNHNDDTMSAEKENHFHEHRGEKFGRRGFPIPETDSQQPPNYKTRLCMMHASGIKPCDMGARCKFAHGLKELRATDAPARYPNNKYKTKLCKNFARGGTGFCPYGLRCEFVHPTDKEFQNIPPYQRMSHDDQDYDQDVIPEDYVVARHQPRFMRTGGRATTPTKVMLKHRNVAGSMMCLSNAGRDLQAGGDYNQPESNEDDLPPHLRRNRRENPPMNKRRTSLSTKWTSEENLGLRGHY
# Sequence of Cytochrome P450 2C9 (P11712 whole entry): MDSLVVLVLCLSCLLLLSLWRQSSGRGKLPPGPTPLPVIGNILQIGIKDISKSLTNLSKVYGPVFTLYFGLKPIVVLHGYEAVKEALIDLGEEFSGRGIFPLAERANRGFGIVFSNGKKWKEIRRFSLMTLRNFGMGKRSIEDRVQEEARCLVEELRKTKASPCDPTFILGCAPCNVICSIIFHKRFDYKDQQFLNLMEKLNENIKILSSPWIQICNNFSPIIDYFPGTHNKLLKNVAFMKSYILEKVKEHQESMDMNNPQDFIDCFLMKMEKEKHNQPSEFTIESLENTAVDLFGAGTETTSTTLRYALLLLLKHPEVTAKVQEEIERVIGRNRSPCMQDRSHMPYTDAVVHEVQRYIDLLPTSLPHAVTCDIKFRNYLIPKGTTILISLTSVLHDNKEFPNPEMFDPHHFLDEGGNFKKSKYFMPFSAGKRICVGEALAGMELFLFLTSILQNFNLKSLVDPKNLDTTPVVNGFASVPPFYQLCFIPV
compound,measurement,setting,value
"COc1ccc2c(c1OC)C(=O)O[C@H]2[C@H]1c2cc3c(cc2CCN1C)OCO3 [1R,9S-HYDRASTINE]",AC50,Cytochrome P450 2C9,1.58 nM (inconclusive) and 15.8 µM (inconclusive)
O=C(c1ccco1)N1CCC2(CCCN(Cc3ccncc3)C2)CC1,AC50,Cytochrome P450 1A2,15.8 µM (inconclusive)
Cc1ccc(C)c(S(=O)(=O)NC(C)C(=O)Nc2ccc(-c3nc4ccccc4s3)cc2)c1 (centres undefined),AC50,Cytochrome P450 1A2,15.8 µM (inconclusive)
O=C(Nc1ccccc1-c1nc2ccccc2[nH]1)c1ccc(S(=O)(=O)N2CCCCC2)cc1,AC50,Cytochrome P450 1A2,3.55 µM (inconclusive)
CCCOc1ccc2c3c(c(=O)oc2c1OCCC)CCCC3,AC50,INS1,13.7 µM (active)
same,CC50,[1],23.5 µM (active)
Cc1cc(C)nc(NC(=N)NCCc2c[nH]c3ccccc23)n1,EC50,[2],7.95 µM (active)
same,EC50,Streptococcus,> 150 µM (not active)
same,EC50,Streptokinase A,> 150 µM (not active)
N#Cc1ccccc1-c1ccc2ncnc(NCCN3CCOCC3)c2c1,AC50,Cytochrome P450 2D6,39.8 µM (inconclusive)
O=C(O)c1cc(Cl)c2c(c1)[C@@H]1C=CC[C@@H]1[C@H](c1ccc(S(=O)(=O)N3CCOCC3)cc1)N2,EC50,[3],> 300 µM (not active)
same,EC50,[4],29.7 µM (active)
CC(C)[C@H](NC(=O)N1CC(=O)Nc2ccccc21)C(=O)N[C@@H](Cc1ccccc1)C(=O)O,EC50,[2],> 150 µM (not active)
same,EC50,Streptococcus,> 150 µM (not active)
same,EC50,Streptokinase A,> 150 µM (not active)
COc1ccccc1-c1cc(Nc2ccc(F)cc2)ncn1,AC50,Cytochrome P450 2D6,39.8 µM (inconclusive)
N#CCCn1c(=O)c(-c2ccccc2)nc2cnc(Nc3ccccc3)nc21,AC50,Cytochrome P450 1A2,0.794 µM (inconclusive)
CCN1C=CC2=C(C#N)C(N)C(C#N)(C#N)C(c3ccccc3C(F)(F)F)C2C1 (centres undefined),EC50,[3],260 µM (inconclusive)
same,EC50,[4],> 300 µM (not active)
c1ccc(CN2CCC3(CCNCC3)CC2)cc1,AC50,Cytochrome P450 2C9,25.1 µM (inconclusive)
CNc1nc(OC)nc(N(C#N)CN2C(=O)c3ccccc3S2(=O)=O)n1,EC50,[2],> 150 µM (not active)
same,EC50,Streptococcus,> 150 µM (not active)
same,EC50,Streptokinase A,> 150 µM (not active)
CC1C(=O)NN=C1C(=O)N/N=C/c1ccco1 (centres undefined),EC50,[3],> 300 µM (not active)
same,EC50,[4],> 300 µM (not active)
O=C1c2ccccc2C(=O)N1CCCCN(C(=O)c1ccc([N+](=O)[O-])cc1)c1ccc(Cl)cc1,AC50,Cytochrome P450 2D6,15.8 µM (inconclusive)
CCCC(CCC)C(=O)NNc1cc(O)c2c(=O)n(C)c(=O)n(C)c2n1,AC50,Cytochrome P450 2C9,0.178 µM (inconclusive)
CCCCCC(=O)Nc1cccc(-c2nc3ncccc3o2)c1,AC50,Cytochrome P450 2D6,22.4 µM (inconclusive)
O=C(C/C=N/OCc1ccc(Cl)cc1Cl)c1ccc(Cl)cc1,AC50,Cytochrome P450 2C9,17.8 µM (inconclusive)
same,AC50,Cytochrome P450 2D6,17.8 µM (inconclusive)
CN1[C@@H]2CC[C@H]1CC(OC(=O)c1cc(Cl)cc(Cl)c1)C2 (some centres undefined),AC50,Cytochrome P450 1A2,31.6 µM (inconclusive)
Cc1ccccc1CSCCN=C(S)Nc1ccccc1,EC50,[3],> 300 µM (not active)
same,EC50,[4],> 300 µM (not active)
CN(C)CCCNS(=O)(=O)c1ccc(NC2CCCCCC2)c([N+](=O)[O-])c1,AC50,INS1,6.22 µM (active)

# Source: ChEMBL document CHEMBL1201862, “PubChem BioAssay data set” (2004)
